In the assay the test system is guinea pig perilymph proteome.

Read-outs that look alike come from different tables or passages of the source.

One molecule from US20220032023A1, “ULTRA-SHARP MICRONEEDLE” (THE TRUSTEES OF COLUMBIA UNIVERSITY IN THE CITY OF NEW YORK, priority 2019, published 2022) can be followed below.

Method: Animals were treated and sampled independently, and perilymph samples were stored at −80° C. and processed for proteomics analysis upon collection of all samples.
Dexamethasone Treatment of Animals. […] Twenty-two juvenile guinea pigs of either sex weighing between 150 and 300 g were obtained from a commercial vendor (Charles River Laboratories, Inc., Wilmington, Mass.).
Eight animals were assigned to the control group and were not given any treatment prior to aspiration. […] Guinea pigs were anesthetized with isoflurane gas (3.0% for induction and 1.0-3.0% for maintenance). […] The guinea pig remained under isoflurane anesthesia in a left lateral decubitus position for 30 min. The guinea pig was then allowed to recover in its cage until the aspiration procedure.
Aspiration Procedure. All guinea pigs underwent the aspiration procedure detailed below. […] All procedures were performed on the right ear. Guinea pigs were anesthetized with isoflurane gas (3.0% for induction and 1.0-3.0% for maintenance). Lidocaine was injected subcutaneously for local anesthesia. Buprenorphine sustained release (0.1 mg/kg) and meloxicam (0.5 mg/kg) were both administered subcutaneously prior to surgery for postoperative analgesia. To reduce head motion from breath cycles, head fixation was achieved using a modular 3D-printed head holder with two pointed screws placed anterior to the external auditory meatus and posterior to the orbit without piercing the skin.
A scalpel was used to create a 1 cm postauricular incision. Blunt dissection was used to expose the bulla. A 1 mm drill tip fixed onto a Stryker S2 πDrive drill (Stryker, Kalamazoo, Mich.) was used to create a small opening into the middle ear space. Additional bone was removed using forceps to enlarge the opening to 2-3 mm in diameter for optimal visualization of the RWM. A hollow microneedle, mounted onto the tip of a 2 in. long, 30 gauge, blunt small hub removable needle (Hamilton Company, Reno, Nev.), was secured onto a 10 μL Gastight Hamilton syringe (Model 1701 RN, Hamilton Company, Reno, Nev.). The syringe was mounted onto a UMP3 UltraMicroPump (World Precise Instruments, Sarasota, Fla.), and the pump was fixed to a micromanipulator. Using the micromanipulator, the mounted hollow microneedle was slowly advanced toward the RWM and the perforation was confirmed by visualization.
Using the UltraMicroPump, 1 μL of perilymph was aspirated across theRWMover 45 s. The sample was ejected into a 0.5 mL LoBind Microcentrifuge tube (Eppendorf, Hamburg, Germany) containing 2 μL of 1% protease cocktail inhibitor solution (P8340, Sigma-Aldrich, St. Louis, Mo.) in liquid chromatography/mass spectrometry grade water (Optima, ThermoFisher Scientific, Fair Lawn, N.J.) and stored at −80° C. Seventy-two hours after aspiration, animals were sacrificed with pentobarbital overdose.
Proteomics Analysis. All perilymph samples (1 μL) were stored at −80° C. and then processed as described previously. Briefly, samples were purified with a methanol chloroform protein precipitation as previously described. Proteins were resuspended in 8 M urea, 3 mM dithiothreitol (DTT), 100 mM ammonium bicarbonate in liquid chromatography/mass spectrometry grade water, reduced with dithiothreitol, and alkylated with iodoacetamide. For proteolytic digestion, samples were diluted 5-fold in 100 mM ammonium bicarbonate and then digested using sequencing grade trypsin (Promega V511) at a protease/protein ratio of 1:50 at 37° C. for 16 h as described previously. Samples were then desalted with Nest Group C18 Macrospin columns (Southborough, Mass.). Resulting peptides were analyzed by liquid chromatography/mass spectrometry as described previously.

As to `C[C@@H]1C[C@H]2[C@@H]3CCC4=CC(=O)C=C[C@]4(C)[C@@]3(F)[C@@H](O)C[C@]2(C)[C@@]1(O)C(=O)COP(=O)(O)O` [Dex, Dexamethasone sodium phosphate], the “number of perilymph proteins downregulated compared to control” value by setting is: (IP Dex group) 6 proteins; (IT Dex group) “two”. For the same molecule, the “number of perilymph proteins upregulated compared to control” value is recorded as 8 proteins (IP Dex group) and “one” (IT Dex group). For the same molecule, the “number of perilymph proteins modulated compared to control” value is, setting by setting: (IP Dex group, of 175 proteins analysed) 14 proteins; (IT Dex group, of 175 proteins analysed) “three”; (by either IP Dex or IT Dex, overall) 15 proteins.
